Source: PubChem BioAssay (NCI)
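Growth conditions: 96-well plates. Treatment: test compound, 48 hours, 5 concentrations. Analysis: linear interpolation between bracketing concentrations; unreached endpoints set to highest concentration. TGI: concentration producing complete growth inhibition.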

Tests used:
Experiment in all cases: NCI tumour cell line growth inhibition, 48 h
EKVX NSCLC = system: EKVX NSCLC
SK-MEL-2 melanoma = system: SK-MEL-2 melanoma
XF 498 CNS = system: XF 498 CNS
NCI-H23 lung = system: NCI-H23 lung
SK-MEL-28 melanoma = system: SK-MEL-28 melanoma
NCI-H522 lung = system: NCI-H522 lung
NCI-H226 lung = system: NCI-H226 lung
MOLT-4 leukemia = system: MOLT-4 leukemia
OVCAR-4 ovarian = system: OVCAR-4 ovarian
RPMI-8226 leukemia = system: RPMI-8226 leukemia
SK-OV-3 ovarian = system: SK-OV-3 ovarian
SF-268 CNS = system: SF-268 CNS
ACHN renal = system: ACHN renal
TK-10 renal = system: TK-10 renal
HCT-15 colon = system: HCT-15 colon
CAKI-1 renal = system: CAKI-1 renal
LXFL 529 NSCLC = system: LXFL 529 NSCLC
UO-31 renal = system: UO-31 renal
UACC-62 melanoma = system: UACC-62 melanoma
HL-60(TB) leukemia = system: HL-60(TB) leukemia
DMS 114 small cell lung = system: DMS 114 small cell lung
CCRF-CEM leukemia = system: CCRF-CEM leukemia
KM12 colon = system: KM12 colon
OVCAR-8 ovarian = system: OVCAR-8 ovarian
UACC-257 melanoma = system: UACC-257 melanoma
OVCAR-3 ovarian = system: OVCAR-3 ovarian
SN12C renal = system: SN12C renal
HOP-62 NSCLC = system: HOP-62 NSCLC
IGROV1 ovarian = system: IGROV1 ovarian
HOP-18 NSCLC = system: HOP-18 NSCLC
HCC-2998 colon = system: HCC-2998 colon
A549 NSCLC = system: A549 NSCLC
SNB-19 CNS = system: SNB-19 CNS
NCI-H460 lung = system: NCI-H460 lung
SK-MEL-5 melanoma = system: SK-MEL-5 melanoma
SF-539 CNS = system: SF-539 CNS
HOP-92 NSCLC = system: HOP-92 NSCLC
SR leukemia = system: SR leukemia
HT29 colon = system: HT29 colon
MALME-3M melanoma = system: MALME-3M melanoma
K-562 leukemia = system: K-562 leukemia
HCT-116 colon = system: HCT-116 colon
LOX IMVI melanoma = system: LOX IMVI melanoma
SNB-78 CNS = system: SNB-78 CNS
M19-MEL melanoma = system: M19-MEL melanoma
M14 melanoma = system: M14 melanoma
U251 CNS = system: U251 CNS
DLD-1 colon = system: DLD-1 colon
SF-295 CNS = system: SF-295 CNS
OVCAR-5 ovarian = system: OVCAR-5 ovarian
RXF 393 renal = system: RXF 393 renal
SW-620 colon = system: SW-620 colon
786-0 renal = system: 786-0 renal
COLO 205 colon = system: COLO 205 colon
DMS 273 small cell lung = system: DMS 273 small cell lung
SNB-75 CNS = system: SNB-75 CNS
RXF-631 renal = system: RXF-631 renal
KM20L2 colon = system: KM20L2 colon
A498 renal = system: A498 renal

Measured: TGI

COc1cc(/C=C/c2csnn2)cc(OC)c1OC
not listed: COLO 205 colon | DMS 273 small cell lung | SNB-75 CNS | RXF-631 renal | KM20L2 colon | A498 renal
> 100 µM: all other assays above

CCOC(=O)C1S(=O)(=O)OCCOS1(=O)=O
not listed: NCI-H226 lung | ACHN renal | HCT-15 colon | DMS 114 small cell lung | HOP-18 NSCLC | NCI-H460 lung | U251 CNS | OVCAR-5 ovarian | RXF 393 renal | KM20L2 colon | A498 renal
> 100 µM: all other assays above

COc1ccc2ccccc2c1C1=NC(C)(C)CO1
not listed: DMS 114 small cell lung | HCC-2998 colon | LOX IMVI melanoma | SNB-78 CNS | OVCAR-5 ovarian | DMS 273 small cell lung | A498 renal
> 100 µM: all other assays above

CC(=O)OC1COC(N2CCc3cc([N+](=O)[O-])ccc32)C(OC(C)=O)C1OC(C)=O (centres undefined)
not listed: HL-60(TB) leukemia | SN12C renal | HOP-18 NSCLC | HCC-2998 colon | MALME-3M melanoma | HCT-116 colon | OVCAR-5 ovarian | RXF-631 renal
> 100 µM: all other assays above
